Measurements as given in patent US6232089A, “CD23 processing enzyme preparation” (SmithKline Beecham Corporation, priority 1998, dated 2001).
Entries after “also recorded” stand apart in the source; their conditions may differ. Where a name gives a salt, the structure may show the parent alone. One block for each compound: values may come before it.

What was measured:
CD23 processing activity = assay: Affinity chromatography with compound 8 on streptavidin-agarose; type: binding, human
Method: Affinity Chromatography with compound 8 (compound 28 in synthetic examples)
An affinity column was prepared with compound 8 on streptavidin-agarose beads (Pierce Chemical Co.) by overnight mixing of an estimated five equivalents of compound 8 with beads in 50 mM HEPES, pH 7.5, 0. 1% NP-40 (binding buffer). The column was washed with 20 volumes of this buffer and 20 volumes of 50 mM HEPES pH 7.5, 0.5% NP-40 in a syringe column, and re-equilibrated to binding buffer. An equivalent column with no compound 8 was also prepared. 150 ug of solubilized membranes from RPMI 8866 cells were applied to the both columns, washed with 3 ml binding buffer, 3 ml binding buffer with 0.1 M NaCl, and 3 ml binding buffer with 50 uM compound 2. Each 1 ml fraction was concentrated, diluted 10-fold and reconcentrated if compound 2 was present, and assayed as in biological example 2. For the column with no compound 8, CD23 processing activity was detected primarily in fractions 1-3, with a small amount in fractions 5 and 6.

CD23 processing enzyme [1] = assay: Membrane CD23 cleavage activity assay (sCD23 release from plasma membranes of RPMI 8866 cells); type: biochemical, human; conditions: for IC50: membranes, read-out: IC50 for inhibition of CD23 processing (production of sCD23)
Method: Membrane CD23 cleavage activity assay:
Plasma membranes from RPMI 8866 cells, a human Epstein-Barr virus transformed B-cell (Sarfati et al., Immunology 60 (1987) 539-547), or a similar cell line expressing high levels of CD23 are purified using an aqueous extraction method. Cells resuspended in homogenization buffer (20 mM HEPES pH 7.4, 150 mM NaCl, 1.5 mM MgCl2, 1 mM DTT) are broken by N2 cavitation in a Parr bomb and the plasma membrane fraction mixed with other membranes recovered by centrifugation at 10,000×g. The light pellet is resuspended in 0.2 M potassium phosphate, pH 7.2 using 2 ml per 1-3 g wet cells and the nuclear pellet is discarded. The membranes are further fractionated by partitioning between Dextran 500 (6.4% w/w) and polyethylene glycol (PEG) 5000 (6.4% w/w) at 0.25 M sucrose in a total of 16 g per 10-15 mg membrane proteins (Morre and Morre, BioTechniques 7, 946-957 (1989)). The phases are separated by brief centrifugation at 1000×g and the PEG (upper) phase is collected, diluted 3-5 fold with 20 mM potassium phosphate buffer pH 7.4, and centrifuged at 100,000×g to recover membranes in that phase. The pellet is resuspended in phosphate-buffered saline and consists of 3-4 fold enriched plasma membranes as well as some other cell membranes (e.g. lysosomes, Golgi). The membranes are aliquoted and stored at -80° C. Fractionation at 6.6% Dextran/PEG yields plasma membranes enriched 10-fold.
The fractionated membranes are incubated at 37° C. for times up to 4 hours to produce fragments of CD23 which are separated from the membrane after quenching the assay with 5 uM compound 1 by centrifugation at 10,000×g. These CD23 fragments are consistent with those reported (Letellier et al, J Exp. Med. 172, 693-700 (1990)): MW, app 36-37 kDa as determined by 12% sodium dodecylsulfate-polyacrylamide electrophoresis (SDS-PAGE) of N-terminal sequence QKSQ; MW, app 33 kDa with N-terminal sequence LKSQ. Additional bands not sequenced: MW, app 28-29 kDa and a doublet at 25-26 kDa. These are detected by Western blot of the total protein in the incubation using a polyclonal antibody such as the polyclonal anti-CD23 antibody in The Binding Site (Birmingham, UK) enzyme-linked immunoassay (EIA) Bindazyme kit for the determination of soluble CD23. Following removal of the membrane by centrifugation or filtration in 0.2 micron filter plates (Durapore, Millpore), sCD23 can also be determined using the EIA kit from The Binding Site or a similar one utilizing MHM6 anti-CD23 mAb (Rowe et al., Int. J. Cancer, 29, 373-382 (1982)) or another anti-CD23 mAb as the capture antibody in a sandwich EIA. […] Samples were incubated at 37° C. for the varying times, quenched with compound 1, applied to 12% SDS-PAGE, and Western blotting on PVDF (Bio-Rad) membrane performed using standard methodology with a combination of BD4 (prepared as described in Biological example 2) and a polyclonal antibody which recognizes all soluble fragments as the primary antibody. The blot was developed by ECL, scanned using a BioImage system and quantitated using the Visage analysis package.
Inhibition of CD23 processing can also be determined by Western blot or by the 5 EIA (Elisa) method. The amount of soluble CD23 made by 0.5-5 ug membrane protein is measured either by quantitation of the Western blot as described using a Millipore BioImage system, or by EIA and compared to the amount made in the presence of various concentrations of inhibitors. Inhibitors are prepared in solutions of water or dimethylsulfoxide (DMSO) and the final DMSO concentration is not more than 2%. The enzyme activity of CD23 processing is inhibited by 1,10-phenanthroline (1 mM), and not by 1,7-phenanthroline (1 mM), PMSF (1 mM), E-64 (10 uM), pepstatin (10 uM), leupeptin (10 uM), or tosyl-leucylchloroketone (100 uM), and weakly by phosphoramidon (40% inhibition at 100 uM). The enzyme can heretofore best be described as a metalloprotease rather than a serine, cysteine or acid protease. […]

CD23 processing enzyme [2] = assay: Photolabeling of membranes or solubilized membrane proteins containing the CD23 processing enzyme, 12% SDS-PAGE / 2-dimensional gel electrophoresis; type: binding; conditions: for molecular weight range of photolabeled bands: 12% SDS-PAGE, ECL detection, several bands; for molecular weight range of majority of minor biotinylated spots / pH range of minor biotinylated spots (acidic proteins): 2-dimensional gel electrophoresis, 0.1 to 0.3 uM compound 4 or 1 uM compound 3
Method: Compound 4 (Synthetic Example 17), Compound 5 (Synthetic Example 17a), Compound 6 (Synthetic Example 25), and Compound 7 (Synthetic Example 27) can also be used to photolabel membranes or solubilized membrane proteins containing the CD23 processing enzyme, using the same method described for compound 3. Analysis by 12% SDS-PAGE and ECL detection of biotinylated protein, using streptavidin-HRP detects several bands in the molecular weight range 50-65 kDa.
Up to 200 ug of membrane proteins in PBS were solubilized in 0.1 % NP-40 and photolabeled with 0.1 to 0.3 uM compound 4 or 1 uM compound 3 as described for compound 3 above. The sample was then dialyzed vs. 10 mM potassium phosphate pH 7.5, 0.1% NP-40, concentrated in a Centricon 10 (Amicon, Beverly Mass.), then made 8 M in urea, 2% in Triton X-100, 0. 8% in Pharmalyte 3-10 (Pharmacia) and 50 mM in DTT. After electrophoresis in both dimensions, the proteins were blotted to PVDF, and biotinylated proteins detected with streptavidin-HRP as described above. The majority of the minor biotinylated spots observed were in the molecular weight range 50-65 kDa and were acidic proteins with pH in the range 4.5-6.0.

CD23 fragments = conditions: 10-20 mM, cell cultures; cited from earlier work
CD23 processing enzyme [3] = assay: Solubilized membrane protein CD23 processing enzyme assay; type: biochemical, human; conditions: concentration not given
[4] = test system: solubilized membrane proteins from BJAB cells; assay: Photolabeling of Superose 12 column fractions of solubilized membrane proteins, SDS-PAGE; type: binding; conditions: 1 uM compound 3, long UV, 1 min, Superose 12 fractions, single band
Method: Compound 3 is an inhibitor of CD23 processing in membranes with an IC50 of about 1-3 uM. Compound 3 (the synthesis of which is described in the Synthetic Examples section as Example 9), is [N-[4-N'-Hydroxyamino-2-(R)-2-(2-methylpropyl)succinyl]-S-4-azidophenylalanine-N"-(6-biotinoylaminohexyl)amide]. Compound 3 was prepared for use as a photolabeling agents as follows. [drawing 1]
Column fractions from a Superose 12 column of solubilized membrane proteins from BJAB cells were photolabeled with 1 uM compound 3 using a Sunlit phosphor lamp at long UV for 1 min. […] Active fractions from RPMI 8866 fractionations are similarly photolabeled.
Fractions were concentrated, photolabeled as described, applied to 12% SDS-PAGE, blotted to PVDF and photolabeled material detected with streptavidin-horseradish peroxidase (streptavidin-HRP) using ECL (Amersham) methodology. Fraction "0" indicates the photolabeling observed in an unfractionated sample. The 45 kDa MW marker protein migrated with an elution volume corresponding to fractions 17 or 18. The fraction sizes are not the same as FIG. 7.

Compound: CC(C)C[C@@H](C(=O)N[C@@H](Cc1ccccc1)C(=O)NCCCCCCNC(=O)CCCC[C@@H]1SC[C@@H]2NC(=O)N[C@@H]21)[C@H](CSCc1ccc(C(=O)c2ccccc2)cc1)C(=O)NO [Compound 7, N-[(3-(S)-(4-benzoylbenzyl)thiomethyl-4-(N-Hydroxyamino)-2R-isobutyl)succinyl]-(S)-phenylalanine-N-(6-biotinoylaminohexyl)amide]
molecular weight range of photolabeled bands (CD23 processing enzyme [2]): 50-65 kDa

Compound: CC(C)C[C@H](NP(=O)(O)O[C@@H]1O[C@@H](C)[C@H](O)[C@@H](O)[C@H]1O)C(=O)N[C@@H](Cc1c[nH]c2ccccc12)C(=O)O [phosphoramidon]
inhibition (CD23 processing enzyme [1]; 100 uM): 40%
inhibition of CD23 processing (CD23 processing enzyme [1]; 100 uM): weakly

Compound: NC(=O)CI [iodoacetamide]
accumulation of 37 and 33 kDa CD23 fragments (CD23 fragments): results in the accumulation
accumulation of the 25-27 kDa CD23 fragments (CD23 fragments): prevents the accumulation

Compound: C#CCSC[C@H](C(=O)NO)[C@@H](CC(C)C)C(=O)N[C@@H](Cc1ccccc1)C(=O)NCCCCCCNC(=O)CCCC[C@@H]1SC[C@@H]2NC(=O)N[C@@H]21 [Compound 8, N-[(3-(S)-propargylthiomethyl-4-(N-Hydroxyamino)-2R-isobutyl)succinyl]-(S)-phenylalanine-N-(6-biotinoylaminohexyl)amide]
fractions in which CD23 processing activity was detected, column with compound 8 (CD23 processing activity; binding buffer, then 0.1 M NaCl, then 50 uM compound 2, fractions 1-9): only in fractions 7-9
inhibition of CD23 processing (CD23 processing enzyme [1]; concentration not given): inhibitor of CD23 cleavage activity

Compound: CNC(=O)[C@H](Cc1ccccc1)NC(=O)[C@H](CC(C)C)[C@H](CSc1cccs1)C(=O)NO [Compound 1, [4-(N-Hydroxyamino)-2-(R)-isobutyl-3-(S)-(2-thiophenethiomethyl)succinyl]-(S)-phenylalanine-N-methylamide, sodium salt]
inhibition of CD23 processing (CD23 processing enzyme [1]; concentration not given): inhibited
IC50 (CD23 processing enzyme [1]): 100 ± 50 nM
inhibition of activity producing the 33 kDa fragment (CD23 processing enzyme [3]): inhibited

Compound: CC(C)(C)[C@H](NC(=O)[C@H](Cc1ccc(N=[N+]=[N-])cc1)[C@H](O)C(=O)NO)C(=O)NCCCCCCNC(=O)CCCC[C@@H]1SC[C@@H]2NC(=O)N[C@@H]21 [Compound 6, N'-[3S-Hydroxy-4-(N-hydroxyamino)-2R-(4-azidobenzyl)succinyl]-S-tert-leucine-N-(6-biotinoylaminohexyl)amide]
molecular weight range of photolabeled bands (CD23 processing enzyme [2]): 50-65 kDa

Compound: Cc1ccc(S(=O)(=O)N[C@@H](CCCCN)C(=O)CCl)cc1 [TLCK]
inhibition of CD23 processing (CD23 processing enzyme [1]; concentration not given): not inhibited

The next lines start with results.

IC50 (CD23 processing enzyme [1]): 2000 ± 1000 nM
Compound: CC(C)C[C@H](CC(=O)NO)C(=O)N[C@@H](Cc1ccccc1)C(=O)NCc1ccccc1 [Compound 2]
elution of CD23 processing activity from affinity column with compound 8 (CD23 processing activity; 50 uM compound 2): specifically eluted
inhibition of CD23 processing (CD23 processing enzyme [1]; concentration not given): weaker inhibitor

molecular weight range of majority of minor biotinylated spots (CD23 processing enzyme [2]): 50-65 kDa
pH range of minor biotinylated spots (acidic proteins) (CD23 processing enzyme [2]): 4.5-6.0
molecular weight range of photolabeled bands (CD23 processing enzyme [2]): 50-65 kDa
Compound: CC(C)C[C@@H](C(=O)N[C@@H](Cc1ccccc1)C(=O)NCCCCCCNC(=O)CCCC[C@@H]1SC[C@@H]2NC(=O)N[C@@H]21)[C@H](CSCC(=NO)c1ccc(N=[N+]=[N-])cc1)C(=O)NO [Compound 4, N-[4-N' Hydroxyamino-3-(S)-3-[(2-[4-azidophenyl]-2-[hydroxyimino]ethyl)-thiomethyl]-2-(R)-2-(2-methylpropyl)succinyl]-S-phenylalanine-N'-(6biotinoylaminohexyl)amide]

molecular weight range of photolabeled bands (CD23 processing enzyme [2]): 50-65 kDa
Compound: CC(C)C[C@@H](C(=O)N[C@@H](Cc1ccccc1)C(=O)NCCCCCCNC(=O)CCCC[C@@H]1SC[C@@H]2NC(=O)N[C@@H]21)[C@H](CSCC(=O)c1ccc(N=[N+]=[N-])cc1)C(=O)NO [Compound 5, N-[4-Hydroxyamino-3-(S)-3-(4-azidophenacylthiomethyl)-2-(R)-2-(2-methylpropyl)succinyl]-S-phenylalanine-N'-(6-biotinoylaminohexyl)amide]

inhibition of activity producing the 33 kDa fragment (CD23 processing enzyme [3]): inhibition; also recorded: inhibited
Compound: c1cnc2c(c1)ccc1cccnc12 [1,10-phenanthroline]
inhibition of CD23 processing (CD23 processing enzyme [1]; 1 mM): inhibited

molecular weight range of majority of minor biotinylated spots (CD23 processing enzyme [2]): 50-65 kDa
pH range of minor biotinylated spots (acidic proteins) (CD23 processing enzyme [2]): 4.5-6.0
IC50 (CD23 processing enzyme [1]): 1000 to 3000 nM
Compound: CC(C)C[C@H](CC(=O)NO)C(=O)N[C@@H](Cc1ccc(N=[N+]=[N-])cc1)C(=O)NCCCCCCNC(=O)CCCC[C@@H]1SC[C@@H]2NC(=O)N[C@@H]21 [Compound 3, N-[4-N'-Hydroxyamino-2-(R)-2-(2-methylpropyl)succinyl]-S-4-azidophenylalanine-N"-(6-biotinoylaminohexyl)amide]
MW, app of photolabeled band [4]: 45 kDa
